Patent US11259516B2, “Method and apparatus for capsular delivery to plants” (priority 2017, dated 2022)

Experiments:
[1] = test system: Cryptostegia grandiflora (Rubber vine); parameters: key: X indicates that the given herbicide is suitable for controlling the given weed; details: cited from earlier work
[2] = test system: Mimosa pigra (Mimosa); parameters: key: X indicates that the given herbicide is suitable for controlling the given weed; details: cited from earlier work
[3] = test system: Vachellia nilotica (Prickly acacia); parameters: key: X indicates that the given herbicide is suitable for controlling the given weed; details: cited from earlier work
[4] = test system: western white gum (Eucalyptus argophloia); test: Example 2: glyphosate and hexazinone capsules, thinning trial in western white gum plantation
Description: The trial for this example was established at the HQP plantation near Jandowae on 6 Feb. 2018. The trees were planted in rows 4 m apart at 1.5 m spacing. Trees were 6-10 m tall. Trees to be maintained were marked and the other trees were treated.
Four treatments were used, with capsules as follows:
The capsules used were HPMC Size 0 Natural TR.V700 colour cap and body Vcaps (Suzhou Capsugel® Ltd, China). Capsules were hand packed using a Capsugel Profiller apparatus (https://www.capsugel.com/biopharmaceutical-products/profiller). An embodiment of apparatus 10 adapted to include handle 2201 (FIG. 17) was used to drill a hole into the stem, insert the herbicide capsule and seal with a wooden plug.
Herbicide capsules were applied to approximately 10 trees for each of the treatments. The number of capsules applied to each tree was independent of tree circumference which was measured at chest height. The tree circumferences range was from 20 to 34 centimetres. At 4 weeks, a small sample of trees were cut down with a chainsaw and cross-sections of stems containing the sites of insertion of the herbicide capsules removed. These stem pieces were returned to the laboratory and split open longitudinally through the insertion point. Tree health was assessed at 11 weeks (24 Apr. 2018) on a 0-4 scale with 0 being dead and 4 being healthy. Observations were made for evidence of flashback in untreated trees.

[5] = test system: Acacia spp (Wattles); parameters: key: X indicates that the given herbicide is suitable for controlling the given weed; details: cited from earlier work
[6] = test system: Ailanthus altissima (Tree-of-heaven); parameters: key: X indicates that the given herbicide is suitable for controlling the given weed; details: cited from earlier work
[7] = test system: Eucalyptus spp (Box, Eucalypt); parameters: key: X indicates that the given herbicide is suitable for controlling the given weed; details: cited from earlier work
[8] = test system: Lycium ferocissium (African boxthom); parameters: key: X indicates that the given herbicide is suitable for controlling the given weed; details: cited from earlier work
[9] = test system: Parkinsonia aculeata (Parkinsonia); parameters: key: X indicates that the given herbicide is suitable for controlling the given weed; details: cited from earlier work
[10] = test system: Cascabela thevetia (Yellow oleander); parameters: key: X indicates that the given herbicide is suitable for controlling the given weed; details: cited from earlier work
[11] = test system: Harungana madagarcariensis (Harungana); parameters: key: X indicates that the given herbicide is suitable for controlling the given weed; details: cited from earlier work
[12] = test system: Phoenix spp (Palms); parameters: key: X indicates that the given herbicide is suitable for controlling the given weed; details: cited from earlier work
[13] = test system: Schinus terebinthifolius (Broad-leafed pepper tree); parameters: key: X indicates that the given herbicide is suitable for controlling the given weed; details: cited from earlier work
[14] = test system: Tamarix aphylla (Athel pine); parameters: key: X indicates that the given herbicide is suitable for controlling the given weed; details: cited from earlier work
[15] = test system: Angophora spp (Apple); parameters: key: X indicates that the given herbicide is suitable for controlling the given weed; details: cited from earlier work
[16] = test system: Bursaria spinosa (Australian blackthorn); parameters: key: X indicates that the given herbicide is suitable for controlling the given weed; details: cited from earlier work
[17] = test system: Caesalpinia decapetala (Thorny poinciana); parameters: key: X indicates that the given herbicide is suitable for controlling the given weed; details: cited from earlier work
[18] = test system: Chamaecytisus palmensis (Tree lucerne); parameters: key: X indicates that the given herbicide is suitable for controlling the given weed; details: cited from earlier work
[19] = test system: Jatropha gossypiifolia (Bellyache bush); parameters: key: X indicates that the given herbicide is suitable for controlling the given weed; details: cited from earlier work
[20] = test system: Lantana camara (Lantana); parameters: key: X indicates that the given herbicide is suitable for controlling the given weed; details: cited from earlier work
[21] = test system: Ligustrum lucidum (Broad leaf privet); parameters: key: X indicates that the given herbicide is suitable for controlling the given weed; details: cited from earlier work
[22] = test system: Ligustrum sinense (Chinese privet); parameters: key: X indicates that the given herbicide is suitable for controlling the given weed; details: cited from earlier work
[23] = test system: Rubus anglocandicans (Blackberry); parameters: key: X indicates that the given herbicide is suitable for controlling the given weed; details: cited from earlier work
[24] = test system: Senna pendula (Winter senna); parameters: key: X indicates that the given herbicide is suitable for controlling the given weed; details: cited from earlier work
[25] = test system: Azadirachta indica (Neem); parameters: key: X indicates that the given herbicide is suitable for controlling the given weed; details: cited from earlier work
[26] = test system: Leucaena leucocephala (Leucaena); parameters: key: X indicates that the given herbicide is suitable for controlling the given weed; details: cited from earlier work
[27] = test system: Leptospermum spp. (Tea trees); parameters: key: X indicates that the given herbicide is suitable for controlling the given weed; details: cited from earlier work
[28] = test system: Salix species (Willows); parameters: key: X indicates that the given herbicide is suitable for controlling the given weed; details: cited from earlier work
[29] = test system: Senegalia catechu (Cutch tree); parameters: key: X indicates that the given herbicide is suitable for controlling the given weed; details: cited from earlier work
[30] = test system: Solanum mauritianum (Wild tobacco tree); parameters: key: X indicates that the given herbicide is suitable for controlling the given weed; details: cited from earlier work
[31] = test system: Ziziphus mauritania (Chinee apple); parameters: key: X indicates that the given herbicide is suitable for controlling the given weed; details: cited from earlier work
[32] = test system: Atalaya hemiglauca (Whitewood); parameters: key: X indicates that the given herbicide is suitable for controlling the given weed; details: cited from earlier work
[33] = test system: Calotropis procera (Rubber bush); parameters: key: X indicates that the given herbicide is suitable for controlling the given weed; details: cited from earlier work
[34] = test system: Eremophila mitchellii (False sandalwood); parameters: key: X indicates that the given herbicide is suitable for controlling the given weed; details: cited from earlier work
[35] = test system: Melalauca spp; parameters: key: X indicates that the given herbicide is suitable for controlling the given weed; details: cited from earlier work
[36] = test system: Planchonia careya (Cocky apple); parameters: key: X indicates that the given herbicide is suitable for controlling the given weed; details: cited from earlier work
[37] = test system: Vachellia famesiana (Mimosa bush); parameters: key: X indicates that the given herbicide is suitable for controlling the given weed; details: cited from earlier work
[38] = test system: Acer negudo (Box elder); parameters: key: X indicates that the given herbicide is suitable for controlling the given weed; details: cited from earlier work
[39] = test system: Banksia spp (Bottlebrush); parameters: key: X indicates that the given herbicide is suitable for controlling the given weed; details: cited from earlier work
[40] = test system: Cestrum parqui (Green cestrum); parameters: key: X indicates that the given herbicide is suitable for controlling the given weed; details: cited from earlier work
[41] = test system: Cinnamonum camphora (Camphor laurel); parameters: key: X indicates that the given herbicide is suitable for controlling the given weed; details: cited from earlier work
[42] = test system: Crataegus sinaica (Azarola); parameters: key: X indicates that the given herbicide is suitable for controlling the given weed; details: cited from earlier work
[43] = test system: Olea europea sbsp africana (African olive); parameters: key: X indicates that the given herbicide is suitable for controlling the given weed; details: cited from earlier work
[44] = test system: Olea europea sbsp europa (European olive); parameters: key: X indicates that the given herbicide is suitable for controlling the given weed; details: cited from earlier work
[45] = test system: Prosopis spp (Mesquite); parameters: key: X indicates that the given herbicide is suitable for controlling the given weed; details: cited from earlier work
[46] = test system: Ricinus communis (Castor oil plant); parameters: key: X indicates that the given herbicide is suitable for controlling the given weed; details: in vivo; cited from earlier work

COc1c(Cl)ccc(Cl)c1C(=O)O [Dicamba]
X: suitability of herbicide for control of weed [1] | suitability of herbicide for control of weed [2]

CN(C)C(=O)Nc1ccc(Cl)c(Cl)c1 [Diuron]
X: suitability of herbicide for control of weed [3]

CN(C)c1nc(=O)n(C2CCCCC2)c(=O)n1C [Hexazinone]
X: suitability of herbicide for control of weed [5] | suitability of herbicide for control of weed [6] | suitability of herbicide for control of weed [1] | suitability of herbicide for control of weed [7] | suitability of herbicide for control of weed [8] | suitability of herbicide for control of weed [9] | suitability of herbicide for control of weed [3]
no flashback was observed: flashback in the trees marked for retention ([4]; in vivo)
only a small percentage of trees killed: trees died / killed (health rating 0-4 scale, 0 dead) ([4]; Eucalyptus argophloia, 11 weeks post treatment, 1 or 2 capsules per tree)
obvious deterioration in plant health: plant health (yellowing of the foliage) ([4]; Eucalyptus argophloia, 11 weeks, 1 or 2 capsules per tree)

CC(C)C1(C)N=C(c2ncccc2C(=O)O)NC1=O (stereo not drawn) [Imazapyr]
X: suitability of herbicide for control of weed [6] | suitability of herbicide for control of weed [10] | suitability of herbicide for control of weed [1] | suitability of herbicide for control of weed [11] | suitability of herbicide for control of weed [12] | suitability of herbicide for control of weed [13] | suitability of herbicide for control of weed [14]

COC(=O)c1ccccc1S(=O)(=O)NC(=O)Nc1nc(C)nc(OC)n1 [Metsulfuron-methyl]
X: suitability of herbicide for control of weed [5] | suitability of herbicide for control of weed [6] | suitability of herbicide for control of weed [15] | suitability of herbicide for control of weed [16] | suitability of herbicide for control of weed [17] | suitability of herbicide for control of weed [18] | suitability of herbicide for control of weed [1] | suitability of herbicide for control of weed [7] | suitability of herbicide for control of weed [11] | suitability of herbicide for control of weed [19] | suitability of herbicide for control of weed [20] | suitability of herbicide for control of weed [21] | suitability of herbicide for control of weed [22] | suitability of herbicide for control of weed [2] | suitability of herbicide for control of weed [23] | suitability of herbicide for control of weed [24]

Nc1c(Cl)c(Cl)nc(C(=O)O)c1Cl [Picloram]
X: suitability of herbicide for control of weed [5] | suitability of herbicide for control of weed [25] | suitability of herbicide for control of weed [18] | suitability of herbicide for control of weed [20] | suitability of herbicide for control of weed [26] | suitability of herbicide for control of weed [27] | suitability of herbicide for control of weed [21] | suitability of herbicide for control of weed [8] | suitability of herbicide for control of weed [23] | suitability of herbicide for control of weed [28] | suitability of herbicide for control of weed [13] | suitability of herbicide for control of weed [29] | suitability of herbicide for control of weed [30] | suitability of herbicide for control of weed [31]

CNC(=O)N(C)c1nnc(C(C)(C)C)s1 [Tebuthiuron]
X: suitability of herbicide for control of weed [5] | suitability of herbicide for control of weed [32] | suitability of herbicide for control of weed [33] | suitability of herbicide for control of weed [1] | suitability of herbicide for control of weed [34] | suitability of herbicide for control of weed [20] | suitability of herbicide for control of weed [8] | suitability of herbicide for control of weed [35] | suitability of herbicide for control of weed [2] | suitability of herbicide for control of weed [9] | suitability of herbicide for control of weed [36] | suitability of herbicide for control of weed [37] | suitability of herbicide for control of weed [3]

O=C(O)COc1nc(Cl)c(Cl)cc1Cl [Triclopyr]
X: suitability of herbicide for control of weed [5] | suitability of herbicide for control of weed [38] | suitability of herbicide for control of weed [6] | suitability of herbicide for control of weed [15] | suitability of herbicide for control of weed [25] | suitability of herbicide for control of weed [39] | suitability of herbicide for control of weed [16] | suitability of herbicide for control of weed [40] | suitability of herbicide for control of weed [41] | suitability of herbicide for control of weed [42] | suitability of herbicide for control of weed [1] | suitability of herbicide for control of weed [7] | suitability of herbicide for control of weed [20] | suitability of herbicide for control of weed [21] | suitability of herbicide for control of weed [22] | suitability of herbicide for control of weed [8] | suitability of herbicide for control of weed [43] | suitability of herbicide for control of weed [44] | suitability of herbicide for control of weed [12] | suitability of herbicide for control of weed [45] | suitability of herbicide for control of weed [46] | suitability of herbicide for control of weed [23] | suitability of herbicide for control of weed [13] | suitability of herbicide for control of weed [29] | suitability of herbicide for control of weed [14] | suitability of herbicide for control of weed [3] | suitability of herbicide for control of weed [31]
